Laboratory results published in patent US12485191B2, “Radiopharmaceuticals and methods of use thereof” (BOARD OF REGENTS OF THE UNIVERSITY OF NEBRASKA, priority 2017, dated 2025).
Marks after values point to notes of the source that are not given here.

Key:
HT-29 xenograft tumors = assay: Biodistribution study in HT-29 xenograft mouse model; type: in vivo, mice
Method: Female SCID mice (5 weeks of age) received subcutaneous injections of HT-29 cells (5×10^6) suspended in Matrigel® into the flanks. When the tumor size reached 80 mm^3 (two weeks after injection), the mice were randomized into three groups and intravenously injected with 10 μCi (0.37 MBq) of the purified ^177Lu labeled conjugates via tail vein. The mice were sacrificed and the tissues were excised at 4, 24, and 72 hours post-injection time points. The blood, tumor, and excised tissues were weighed. The radioactivity for each sample was measured using a gamma counter. The percentage injected dose per gram (% ID/g) and the radioactivity ratios between tumor and non-targeted tissues were calculated.

[1] = target: T1, cathepsin B (human Liver) (Homo sapiens, UniProt P07858); assay: Inhibition constant (Ki) of the compounds to cathepsin B; type: biochemical; details: read-out: CatB K1
T1 construct: from tissue; host or cells: human liver
Method: Determination of the Km and Vmax of Cathepsin B for Z-Arg-Arg-AMC
The solution of cathepsin B (human Liver) (50 μL, 2 nM) in assay buffer used above was mixed with 50 μL of solution of substrate Z-Arg-Arg-AMC in the assay buffer at different concentrations ([S]) (25 μM, 50 μM, 100 μM, 500 μM and 1 mM). The mixture was incubated at 37° C. and the fluorescence of the liberated aminomethylcoumarin at 460 nM using 355 nm excitation was measured at predetermined time points (0, 2, 4, 6, 8, and 10 minutes). The fluorescence intensity was plotted versus time and the reaction rates (v0) were calculated as the slope of the trend lines obtained by liner regression. Km and maximum reaction rate (Vmax-obs) was determined from the equation v0=Vmax[S]/(Km+[S]) and solved by nonlinear regression using GraphPad Prism 5. All measurements were in biological triplicate.
Determination of the Inhibition Constant (Ki) of the Compounds to Cathepsin B
The cathepsin B (human Liver) in assay buffer (25 μL) was mixed with the conjugate (25 μL) in 96-well plate. After the solution was mixed, the Z-Arg-Arg-AMC in assay buffer (50 μL) was added to the well, yielding a final cathepsin B concentration of 1 nM, conjugate concentration ([C]) of 15 nM or 5 μM, and substrate concentration ([S]) of 25 μM, 50 μM, 100 μM, 500 μM and 1 mM. The mixture was incubated at 37° C. and the fluorescence of the liberated aminomethylcoumarin at 460 nM using 355 nm excitation was measured at predetermined time points (0, 2, 4, 6, 8, and 10 minutes). The fluorescence intensity was plotted versus time with observed reaction rates (v0-obs) calculated as the slope of the trend lines obtained by liner regression. The observed rate constant (Kobs) and observed maximum reaction rate (Vmax-obs) was determined from the equation v0-obs=Vmax-obs [S]/(Kobs+[S]) and solved by nonlinear regression using GraphPad Prism 5. The Ki was calculated from the equation Kobs=Km (1+[C]/Ki). All measurements were in biological triplicate.

NTSR1 = target: T2, NTSR1 (Homo sapiens, UniProt P30989); assay: In vitro competitive neurotensin receptor binding in HT-29 cells vs 177Lu-N1; details: unlabeled conjugates
T2 construct: endogenous in cells; host or cells: HT-29 human colon cancer cells (ATCC)
T2 sequence (P30989 whole entry): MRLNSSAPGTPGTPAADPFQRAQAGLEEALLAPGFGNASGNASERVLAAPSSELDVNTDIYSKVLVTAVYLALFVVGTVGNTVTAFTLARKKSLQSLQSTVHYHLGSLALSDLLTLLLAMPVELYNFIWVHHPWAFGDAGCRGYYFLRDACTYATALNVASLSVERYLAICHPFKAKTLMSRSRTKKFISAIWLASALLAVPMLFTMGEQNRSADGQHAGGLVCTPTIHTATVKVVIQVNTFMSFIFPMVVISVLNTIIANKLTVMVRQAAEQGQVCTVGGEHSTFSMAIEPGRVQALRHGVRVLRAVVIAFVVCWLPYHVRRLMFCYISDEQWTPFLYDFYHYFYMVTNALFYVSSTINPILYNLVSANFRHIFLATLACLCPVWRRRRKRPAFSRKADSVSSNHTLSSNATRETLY
Method: In Vitro Competitive Neurotensin Receptor Binding Studies
The IC50 for the unlabeled conjugates binding to the neurotensin receptors was determined using the HT-29 human colon cancer cell line. […]. Med. Biol., 42:816), served as the competitive radioligand for comparing the relative binding affinities of the conjugates. HT-29 cells (˜1×10^6) suspended in 100 μL of McCoy's 5A medium (pH 7.4, 4.8 mg/mL HEPES, and 2 mg/mL BSA) were incubated with 177Lu-N1 (100,000 cpm, 100 μL) at 37° C. for 45 minutes in the presence of the conjugates with predetermined concentrations (0.5 nM-1 μM) in 100 μL of medium. At the end of the incubation, the cells were centrifuged, aspirated, and washed with fresh medium (5×500 μL). The cell-associated radioactivity was measured using gamma counter and the IC50 values determined by nonlinear regression using GraphPad Prism 5. All measurements were in biological triplicate.

[2] = Distribution coefficient (Log D7.4) of the conjugates; type: physicochemical
Method: Distribution Coefficient (Log D7.4) of the Conjugates The distribution coefficient was determined for each ^177Lu-labeled conjugate. In a 1.5 mL centrifuge tube, 0.5 mL of 1-octanol was added to 0.5 mL of PBS (pH 7.4) containing the radiolabeled peptide (500,000 cpm). The solution was vigorously vortexed for 2 minutes at room temperature and subsequently centrifuged to yield two immiscible layers. The radioactivity of the aliquots (100 μL) taken from each layer were quantified by the gamma counter and the Log D7.4 for each conjugates was calculated.

CatB = CatB (Homo sapiens, UniProt P07858); assay: CatB inhibition of GRPR-targeted agents; type: biochemical
Method: The Inhibition of Cathepsin B Activity by the Conjugates The phosphate buffer (0.1 M, pH=5.8) containing EDTA (1 mM), DTT (2.7 mM), and Brij®35 (0.03%) was prepared before the assay. […] The solution of cathepsin B (human Liver) in assay buffer (50 μL, 0.544 nM) was added to the mixture which was further incubated at 37° C. for 20 minutes. The fluorescence of the liberated aminomethylcoumarin at 460 nM using 355 nm excitation was measured and the IC50 of the cathepsin B inhibition versus the samples without the inhibitor was determined by nonlinear regression using GraphPad Prism 5.

PC-3 tumor = details: mouse, in vivo
[3] = determined by radiometric analysis, 177Lu-labeled conjugate

Row | Structure (SMILES) | Ki [1] | IC50 (NTSR1) | logD7.4 [2, 3] | other results
1 | Cc1cc(C)c(C(=O)OCC(=O)[C@H](CCCCNC(=O)CNC(=O)[C@@H](CO)NC(=O)[C@@H](CO)NC(=O)[C@@H](CO)NC(=O)Cn2cc(C[C@H](NC(=O)CN3CCN(CC(=O)O)CCN(CC(=O)O)CCN(CC(=O)O)CC3)C(=O)N[C@H](CO)C(=O)N[C@H](CO)C(=O)N[C@H](CO)C(=O)N[C@@H](CCCCN)C(=O)N3CCC[C@H]3C(=O)N(C)[C@@H](CCCNC(=N)N)C(=O)N[C@@H](CCCNC(=N)N)C(=O)N3CCC[C@H]3C(=O)N[C@@H](Cc3c(C)cc(O)cc3C)C(=O)N[C@H](C(=O)N[C@@H](CC(C)C)C(=O)O)C(C)(C)C)nn2)NC(=O)[C@H](Cc2ccccc2)NC(=O)OCc2ccccc2)c(C)c1 (177Lu complex, metal not drawn) [Compound 2f] | – | – | – | retention in liver and kidney compared to 3b (in words) (HT-29 xenograft tumors; HT-29 xenograft mice): significantly increased retention; increase in retention in the tumors compared to control 3b (HT-29 xenograft tumors; HT-29 xenograft, after 24 hours): nearly two-fold increase; increase in tumor uptake (HT-29 xenograft tumors; HT-29 xenograft, by 24 hours): 25%
2 | Cc1cc(C)c(C(=O)OCC(=O)[C@H](CCCCn2cc(C[C@H](NC(=O)CN3CCN(CC(=O)O)CCN(CC(=O)O)CCN(CC(=O)O)CC3)C(=O)NCCC(=O)N[C@@H](CCCCN)C(=O)N3CCC[C@H]3C(=O)N(C)[C@@H](CCCNC(=N)N)C(=O)N[C@@H](CCCNC(=N)N)C(=O)N3CCC[C@H]3C(=O)N[C@@H](Cc3c(C)cc(O)cc3C)C(=O)N[C@H](C(=O)N[C@@H](CC(C)C)C(=O)O)C(C)(C)C)nn2)NC(=O)[C@H](Cc2ccccc2)NC(=O)OCc2ccccc2)c(C)c1 [Compound 2a] | 25 ± 4 nM | 20 ± 2 nM | −1.46 ± 0.02^b | –
3 | Cc1cc(C)c(C(=O)OCC(=O)[C@H](CCCCNC(=O)Cn2cc(C[C@H](NC(=O)CN3CCN(CC(=O)O)CCN(CC(=O)O)CCN(CC(=O)O)CC3)C(=O)NCCC(=O)N[C@@H](CCCCN)C(=O)N3CCC[C@H]3C(=O)N(C)[C@@H](CCCNC(=N)N)C(=O)N[C@@H](CCCNC(=N)N)C(=O)N3CCC[C@H]3C(=O)N[C@@H](Cc3c(C)cc(O)cc3C)C(=O)N[C@H](C(=O)N[C@@H](CC(C)C)C(=O)O)C(C)(C)C)nn2)NC(=O)[C@H](Cc2ccccc2)NC(=O)OCc2ccccc2)c(C)c1 [Compound 2b] | 26 ± 5 nM | 22 ± 2 nM | −1.49 ± 0.02^b | –
4 | Cc1cc(C)c(C(=O)OCC(=O)[C@H](CCCCNC(=O)CNC(=O)[C@@H](CO)NC(=O)[C@@H](CO)NC(=O)[C@@H](CO)NC(=O)Cn2cc(C[C@H](NC(=O)CN3CCN(CC(=O)O)CCN(CC(=O)O)CCN(CC(=O)O)CC3)C(=O)NCCC(=O)N[C@@H](CCCCN)C(=O)N3CCC[C@H]3C(=O)N(C)[C@@H](CCCNC(=N)N)C(=O)N[C@@H](CCCNC(=N)N)C(=O)N3CCC[C@H]3C(=O)N[C@@H](Cc3c(C)cc(O)cc3C)C(=O)N[C@H](C(=O)N[C@@H](CC(C)C)C(=O)O)C(C)(C)C)nn2)NC(=O)[C@H](Cc2ccccc2)NC(=O)OCc2ccccc2)c(C)c1 [Compound 2d] | 73 ± 8 nM | 20 ± 3 nM | −1.79 ± 0.06^b | –
5 | Cc1cc(C)c(C(=O)OCC(=O)[C@H](CCCCNC(=O)CNC(=O)[C@@H](CO)NC(=O)[C@@H](CO)NC(=O)[C@@H](CO)NC(=O)Cn2cc(C[C@H](NC(=O)CN3CCN(CC(=O)O)CCN(CC(=O)O)CCN(CC(=O)O)CC3)C(=O)N[C@H](CO)C(=O)N[C@H](CO)C(=O)N[C@H](CO)C(=O)N[C@@H](CCCCN)C(=O)N3CCC[C@H]3C(=O)N(C)[C@@H](CCCNC(=N)N)C(=O)N[C@@H](CCCNC(=N)N)C(=O)N3CCC[C@H]3C(=O)N[C@@H](Cc3c(C)cc(O)cc3C)C(=O)N[C@H](C(=O)N[C@@H](CC(C)C)C(=O)O)C(C)(C)C)nn2)NC(=O)[C@H](Cc2ccccc2)NC(=O)OCc2ccccc2)c(C)c1 [Compound 2f] | 50 ± 13 nM | 18 ± 2 nM | – | –
6 | CC(C)C[C@H](NC(=O)CCC(=O)O)C(=O)N[C@@H](CCCNC(=N)N)C(=O)NCCn1cc(C[C@H](NC(=O)CN2CCN(CC(=O)O)CCN(CC(=O)O)CCN(CC(=O)O)CC2)C(=O)NCCOCCOCCOCCOCCC(=O)N[C@H](Cc2ccccc2)C(=O)N[C@@H](CCC(N)=O)C(=O)N[C@@H](Cc2c[nH]c3ccccc23)C(=O)N[C@@H](C)C(=O)N[C@H](C(=O)NCC(=O)N[C@@H](Cc2c[nH]cn2)C(=O)N[C@@H](CC(C)C)[C@@H](O)CC(=O)N[C@H](CC(C)C)C(N)=O)C(C)C)nn1 [^177Lu-C-ANT, metal not drawn] | – | – | – | inhibition of catB (in words) (CatB): no inhibition; tumor retention (PC-3 tumor): 15%; logD7.4 ([2]; GRPR-targeted agents): −1.9 ± 0.1
